# Reference: patent US8492391B2, “Substituted 6-(2-hydroxybenzylamino)purine derivatives, their use as medicaments and compositions containing these derivatives” (Univerzita Palackeho V Olomouci, priority 2009, dated 2013)
# Like-named read-outs stand apart in the source and are kept apart here.
# How the values were obtained:
# CDK2/cyclin E = molecular target: T1, CDK2/cyclin E (Homo sapiens, UniProt P24941); test: CDK2/cyclin E kinase inhibition assay; assay type: biochemical; conditions: kinase inhibitory activity, 15 μM ATP, histone substrate
# T1 construct: made in house; host or cells: Sf9 insect cells, baculovirus co-infection
# Procedure: (§1) Selected compounds were tested for CDK1/cyclin B, CDK2/cyclin E, CDK5/p25, CDK7/cyclin H and CDK9/cyclin T inhibitory activity to determine the basic relationships between their structure and the inhibitory activity. Cdk/cyclin complexes were expressed in Sf9 cells co-infected with appropriate baculoviral construct. The cells were harvested 70 hours post infection in lysis buffer (50 mM Tris pH 7.4, 150 mM NaCl, 5 mM EDTA, 20 mM NaF, 1% Tween 20, protease inhibitors) for 30 min on ice and the soluble fraction was recovered by centrifugation at 14.000 g for […]. The protein extract was stored at −80° C. until use. The final point test system for kinase activity measurement was used to carry out experiments on the kinetics under linear conditions. […] ATP and tested compound in a final volume of 20 μl, all in reaction buffer: 50 mM Hepes pH 7.4, 10 mM MgCl2, 5 mM EGTA, 10 mM 2-glycerolphosphate, 1 mM NaF, 1 mM DTT and protease inhibitors. After 30 min, the incubations were stopped by adding 5% H3PO4 and then the proteins were separated by phosphocellulose binding. The measurement of kinase inhibition employed the digital imaging analyzer BAS 1800. The kinase activity was expressed as a percentage of maximum activity and the IC50 value was determined by graphic analysis. The kinase activity is expressed as a percentage of maximum activity (FIG. 1).
# [1] = tested on: MCF7 (human breast adenocarcinoma); test: Calcein AM cytotoxicity assay, MCF7; assay type: cell-based; conditions: MCF7, read-out: Cytotoxic activity IC50 (μM) MCF7
# Description: (§2) Cytotoxicity of the compounds is the major property determining their anticancer effect in vivo. One of the parameters used, as the basis for cytotoxicity assays, is the metabolic activity of viable cells. For example, a microtiter assay, which uses the Calcein AM, is now widely used to quantitate cell proliferation and cytotoxicity. For instance, this assay is used in drug screening programs and in chemosensitivity testing. Because only metabolically active cells cleave Calcein AM, these assays detect viable cells exclusively. The quantity of cleaved Calcein AM corresponds to the number of vital cells in the culture. We have been using the following cell lines: MCF7 (human breast adenocarcinoma), K562 (human chronic myelogenous leukaemia), HOS (human osteogenic sarcoma), HeLa (human cervical carcinoma), HL 60 (human promyelocytic leukaemia), G 361 (human malignant melanoma), CEM (human lymphoblastoid leukaemia). All cell lines were grown in DMEM medium (Gibco BRL) supplemented with 10% (v/v) fetal bovine serum and L-glutamine and maintained at 37° C. in a humidified atmosphere with 5% CO2. For cytotoxicity assays, 10^4 cells were seeded into each well of 96 well plate, allowed to stabilize for at least 2 h and then tested compounds were added at various concentrations ranging from 100 to 0.1 μM in triplicates. Three days after drug addition Calcein AM solution (Molecular Probes) was added and let to enter the cells for 1 hour. Fluorescence of viable cells was quantified using Fluoroskan Ascent (Microsystems).
# β-adrenergic receptors = test: Modulation of the activity of β-adrenergic receptors (isoproterenol-induced cAMP synthesis in C6 glioma); assay type: cell-based; conditions: rat C6 glioma, cAMP synthesis induced by 5 μM (−) isoproterenol, 30 min; for EFFECT (modulation of the activity of β-adrenergic receptors) / EFFECT: fold activation (modulation of the activity of β-adrenergic receptors): simultaneous addition
# Procedure: Mechanism of action of novel compounds is presented on FIG. 2. […] Incubation was at 37° C. in a humidified atmosphere. Assays were performed in the logaritmic growth phase at a density of 2.5×10^5 cells/cm^2. Intracellular cAMP synthesis was induced by addition of 5 μM (−) isoproterenol. After 30 min incubation at 37° C. the medium was removed and the cellular amount of cAMP determined using the cAMP-enzyme immunoassay kit of Amersham. The I50 is determined from a dose-response curve in duplicate. The effect of several novel substituted 6-(2-hydroxybenzylamino)purine derivatives was measured after simultaneous addition with isoproterenol.
# As P2Y1-like and A2 purinergic receptors, negatively and positively coupled to adenylate cyclase respectively, are present on rat C6 glioma. It has to be determined if the modulation of the synthesis of cAMP is due to inhibition of the activation of β-adrenergic receptors by isoproterenol are due to activation of purinergic receptors.
# CDK9/cyclin T = molecular target: T2, CDK9/cyclin T (Homo sapiens, UniProt P50750); test: CDK9/cyclin T kinase inhibition assay; assay type: biochemical; conditions: kinase inhibitory activity, 15 μM ATP, (YSPTSPS)3 peptide substrate
# T2 construct: made in house; host or cells: Sf9 insect cells, baculovirus co-infection
# Procedure: as §1
# [2] = tested on: K562 (human chronic myelogenous leukaemia); test: Calcein AM cytotoxicity assay, K562; assay type: cell-based; conditions: read-out: Cytotoxic activity IC50 (μM) K562
# Description: as §2
# [3] = tested on: HOS (human osteogenic sarcoma); test: Calcein AM cytotoxicity assay, HOS; assay type: cell-based; conditions: read-out: Cytotoxic activity IC50 (μM) HOS
# Description: as §2
# p53 = test: p53-dependent transcription, β-galactosidase reporter in Arn8 cells; assay type: cell-based, human; parameters: key to p53 (effect): induction of p53 protein: ++: very strong; +: weak; −: no effect; conditions: for p53 (effect): induction of p53 protein: Arn8 cells stable transfected with a β-galactosidase reporter gene; for p53 (peak concentration in μM): Arn8 cells, concentration inducing maximum of β-galactosidase activity
# Description: Protein p53, accumulated in nuclei upon treatment by the compounds, then leads to trans-activation of natural cell cycle inhibitor p21^WAF1, further blocking the cell cycle. […] This allows qualitative as well as quantitative measurement of CDK inhibitors-induced p53 transcriptional activity via β-galactosidase assay. Then, the effect will be verified in treated cells by immunoblotting of proteins expressed under the control of p53. β-galactosidase activity of human melanoma cell line Arn8 was determined as described. […] Alternatively, β-galactosidase activity was quantified by measuring fluorescence of methylumbelliferyl-β-D-galactopyranoside cleavage product. Cell lines established from the human breast carcinoma (MCF-7) and the human melanoma (Arn8) cell lines were cultured in Dubecco's Modified Eagle Medium (DMEM) supplemented with 10% foetal bovine serum.
# Effects of prepared compounds on activation of p53 protein were analysed in human melanoma cell line Arn8. […] The total β-galactosidase activity in Arn8 cells was quantified using a fluorimetric assay.
# T2 sequence (P50750 whole entry, species assumed): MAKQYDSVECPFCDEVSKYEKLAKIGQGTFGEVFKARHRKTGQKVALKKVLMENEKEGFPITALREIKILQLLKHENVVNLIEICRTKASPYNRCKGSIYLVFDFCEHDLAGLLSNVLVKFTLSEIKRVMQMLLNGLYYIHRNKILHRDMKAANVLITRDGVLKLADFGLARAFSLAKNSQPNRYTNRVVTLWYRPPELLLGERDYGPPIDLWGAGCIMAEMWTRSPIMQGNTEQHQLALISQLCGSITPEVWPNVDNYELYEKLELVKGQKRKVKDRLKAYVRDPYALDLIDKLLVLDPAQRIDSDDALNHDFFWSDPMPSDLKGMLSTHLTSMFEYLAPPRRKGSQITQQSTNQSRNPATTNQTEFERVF
# T2 sequence (O60563 whole entry partner, species assumed): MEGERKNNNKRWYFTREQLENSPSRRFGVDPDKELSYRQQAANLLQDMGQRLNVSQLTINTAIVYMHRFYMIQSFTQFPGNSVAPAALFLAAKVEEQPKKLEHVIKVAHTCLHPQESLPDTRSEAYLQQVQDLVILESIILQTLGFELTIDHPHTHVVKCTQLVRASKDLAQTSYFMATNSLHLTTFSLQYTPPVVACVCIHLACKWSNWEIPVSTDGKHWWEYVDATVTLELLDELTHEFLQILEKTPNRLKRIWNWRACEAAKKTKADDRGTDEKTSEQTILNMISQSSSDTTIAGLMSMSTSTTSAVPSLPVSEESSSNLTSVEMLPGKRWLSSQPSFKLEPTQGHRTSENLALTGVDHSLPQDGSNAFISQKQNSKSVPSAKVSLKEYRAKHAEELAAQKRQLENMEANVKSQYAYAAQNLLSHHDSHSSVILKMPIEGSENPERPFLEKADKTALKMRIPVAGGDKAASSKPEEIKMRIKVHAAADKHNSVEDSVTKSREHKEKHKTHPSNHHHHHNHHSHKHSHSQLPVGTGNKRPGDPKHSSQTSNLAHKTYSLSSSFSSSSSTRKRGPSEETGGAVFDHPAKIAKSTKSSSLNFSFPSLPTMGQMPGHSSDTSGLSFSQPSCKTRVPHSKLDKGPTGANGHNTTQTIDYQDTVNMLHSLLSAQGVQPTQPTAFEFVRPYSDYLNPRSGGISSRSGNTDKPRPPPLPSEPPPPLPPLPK
SMILES,IC50 (CDK2/cyclin E),IC50 (CDK9/cyclin T),IC50 ([1]; Homo sapiens),IC50 ([2]; Homo sapiens),IC50 ([3]; Homo sapiens),further results
Cc1cccc(CNc2nc(NC3CCCCC3N)nc3c2ncn3C(C)C)c1O (stereo not shown) [Compound 105],–,–,–,–,–,IC50 (β-adrenergic receptors): 12 ± 4 µM; EFFECT (modulation of the activity of β-adrenergic receptors) (β-adrenergic receptors): inhibition
CC(C)C(CO)Nc1nc(NCc2cccc(O)c2O)c2ncn(C(C)C)c2n1 (stereo not shown) [Compound 114],–,–,–,–,–,p53 (effect): induction of p53 protein (p53): ++; p53 (peak concentration in μM) (p53): 12.0 µM
CCC(CO)Nc1nc(NCc2cc(Cl)ccc2O)c2ncn(C(CC)CC)c2n1 (stereo not shown) [compound 224],0.09 µM,0.06 µM,5.5 µM,15.6 µM,7.2 µM,–
CCC(CO)Nc1nc(NCc2cc(O)cc(O)c2)c2ncn(C(C)C)c2n1 (stereo not shown) [Compound 123],–,–,–,–,–,p53 (effect): induction of p53 protein (p53): +; p53 (peak concentration in μM) (p53): 11.0 µM; IC50 [1]: 3.2 µM; EFFECT: fold activation (modulation of the activity of β-adrenergic receptors) (β-adrenergic receptors): 1.7-fold activation; IC50 [2]: 5.3 µM; IC50 [3]: 3.7 µM
CCC(CO)Nc1nc(NCc2cc(Cl)ccc2O)c2ncn(CC)c2n1 (stereo not shown) [Compound 50],0.13 µM,0.12 µM,38 µM,58 µM,44 µM,–
CC(C)n1cnc2c(NCc3cc(Cl)ccc3O)nc(NCC(C)(C)O)nc21 [Compound 81],0.03 µM,0.02 µM,–,–,–,EFFECT: fold activation (modulation of the activity of β-adrenergic receptors) (β-adrenergic receptors): 1.7-fold activation
CCC(CO)Nc1nc(NCc2cc(F)ccc2O)c2ncn(C(CC)CC)c2n1 (stereo not shown) [compound 228],0.07 µM,0.04 µM,4.6 µM,13.2 µM,6.8 µM,–
"CC[C@H](CO)Nc1nc(NCc2ccccc2O)c2ncn(C(C)C)c2n1 [OCII, olomoucine II, reference compound]",–,–,–,–,–,p53 (effect): induction of p53 protein (p53): ++; p53 (peak concentration in μM) (p53): 12.0 µM
CCn1cnc2c(NCc3cc(F)ccc3O)nc(NC3CCC(N)CC3)nc21 (stereo not shown) [Compound 51],0.16 µM,0.1 µM,32 µM,52 µM,40 µM,–
CCC(CO)Nc1nc(NCc2cc(C)ccc2O)c2ncn(C(C)C)c2n1 (stereo not shown) [Compound 107],0.02 µM,–,6.6 µM,24.9 µM,18 µM,p53 (effect): induction of p53 protein (p53): ++; p53 (peak concentration in μM) (p53): 6.0 µM
"COc1cccc(CNc2nc(NC3CCC(N)CC3)nc3c2ncn3C(C)C)c1O (mixture of isomers) [Compound 126, (E/Z)—N^2-(4-aminocyclohexyl)-N^6-(2-hydroxy-3-methoxybenzyl)-9-isopropyl-9H-purin-2,6-diamine]",–,–,–,–,–,p53 (effect): induction of p53 protein (p53): ++; p53 (peak concentration in μM) (p53): 11.0 µM; IC50 (β-adrenergic receptors): 4 ± 1 µM; EFFECT (modulation of the activity of β-adrenergic receptors) (β-adrenergic receptors): inhibition
CC(C)n1cnc2c(NCc3cc(Cl)ccc3O)nc(NC3CCCCC3N)nc21 (stereo not shown) [Compound 76],0.05 µM,0.03 µM,2.8 µM,9.9 µM,4.1 µM,–
CC(C)C(CO)Nc1nc(NCc2cc(O)ccc2O)c2ncn(C(C)C)c2n1 (stereo not shown) [Compound 124],–,–,–,–,–,EFFECT: fold activation (modulation of the activity of β-adrenergic receptors) (β-adrenergic receptors): 2.1-fold activation
Cn1cnc2c(NCc3ccccc3)nc(NCCO)nc21 [OC],–,–,–,–,–,IC50 [1]: 133 µM; IC50 (μM) (modulation of the activity of β-adrenergic receptors) (β-adrenergic receptors): inactive; EFFECT (modulation of the activity of β-adrenergic receptors) (β-adrenergic receptors): inactive; IC50 [2]: 163 µM
CCC(CC)n1cnc2c(NCc3cc(Cl)ccc3O)nc(NC3CCCCC3N)nc21 (stereo not shown) [compound 223],0.08 µM,0.05 µM,–,–,–,IC50 [1]: 4.8 µM; IC50 [2]: 17.6 µM; IC50 [3]: 6.8 µM
Cc1ccc(O)c(CNc2nc(NC3CCC(N)CC3)nc3c2ncn3C(C)C)c1 (stereo not shown) [Compound 106],–,–,–,–,–,IC50 (β-adrenergic receptors): 7 ± 2 µM; EFFECT (modulation of the activity of β-adrenergic receptors) (β-adrenergic receptors): inhibition

# Now from value to compound, other results behind:
IC50 (CDK2/cyclin E),IC50 (CDK9/cyclin T),SMILES,IC50 ([1]; Homo sapiens),IC50 ([2]; Homo sapiens),IC50 ([3]; Homo sapiens),further results
0.04 µM,0.02 µM,CC(C)n1cnc2c(NCc3cc(F)ccc3O)nc(NC3CCCCC3N)nc21 (stereo not shown) [Compound 86],1.8 µM,7.6 µM,3.2 µM,IC50 (β-adrenergic receptors): 8 ± 2 µM; EFFECT (modulation of the activity of β-adrenergic receptors) (β-adrenergic receptors): inhibition
0.07 µM,0.04 µM,CCC(CO)Nc1nc(NCc2cc(Cl)ccc2O)c2ncn(C(C)C)c2n1 (stereo not shown) [Compound 79],3.5 µM,11.9 µM,5.3 µM,p53 (effect): induction of p53 protein (p53): ++; p53 (peak concentration in μM) (p53): 8.0 µM; EFFECT: fold activation (modulation of the activity of β-adrenergic receptors) (β-adrenergic receptors): 1.5-fold activation
0.06 µM,0.05 µM,CC(C)C(CO)Nc1nc(NCc2cc(Cl)ccc2O)c2ncn(C(C)C)c2n1 (stereo not shown) [Compound 80],–,–,–,EFFECT: fold activation (modulation of the activity of β-adrenergic receptors) (β-adrenergic receptors): 1.8-fold activation
0.02 µM,–,COc1cccc(CNc2nc(NC3CCCCC3N)nc3c2ncn3C(C)C)c1O (stereo not shown) [Compound 125],3.2 µM,10.9 µM,–,p53 (effect): induction of p53 protein (p53): ++; p53 (peak concentration in μM) (p53): 10.0 µM; IC50 (β-adrenergic receptors): 2 µM; EFFECT (modulation of the activity of β-adrenergic receptors) (β-adrenergic receptors): inhibition
0.26 µM,0.19 µM,COc1cccc(CNc2nc(NC3CCCCC3N)nc3c2ncn3C)c1O (stereo not shown) [Compound 31],36 µM,60 µM,45 µM,–
0.3 µM,0.12 µM,CCC(CO)Nc1nc(NCc2cc(Cl)ccc2O)c2ncn(C)c2n1 (stereo not shown) [Compound 3],55 µM,84 µM,71 µM,–
0.25 µM,0.12 µM,Cn1cnc2c(NCc3cc(F)ccc3O)nc(NC3CCC(N)CC3)nc21 (stereo not shown) [Compound 8],39 µM,64 µM,50 µM,–
0.27 µM,0.15 µM,Cn1cnc2c(NCc3cc(Cl)ccc3O)nc(NC3CCC(N)CC3)nc21 (stereo not shown) [Compound 2],46 µM,82 µM,64 µM,–
0.29 µM,0.18 µM,Cn1cnc2c(NCc3cc(Cl)ccc3O)nc(NC3CCCCC3N)nc21 (stereo not shown) [Compound 1],43 µM,78 µM,65 µM,–
